Reference: US20250345295A1, “LMK235 COMPOSITIONS AND METHODS” (UNM Rainforest Innovations, priority 2024, published 2025)
“Also recorded” adds a separate entry of the source.

Assays:
[1] = test system: C57BL/6 mice with TIC model; test: von Frey mechanical threshold, TIC trigeminal nerve injury model; assay type: in vivo, mouse
Excerpt: Mice underwent the TIC nerve injury surgery, a simplified non-ligation variant of the trigeminal CCI-ION model previously described (Lyons et al., Neuroscience 2015 Jun. 4; 295:126-138; Ma et al., MolBrain 2012 Dec. 28; 5:44). Briefly, mice were anesthetized with isoflurane (3-4%) and a piece of chromic gut suture (2 mm length, 6-0) was placed parallel to the infraorbital nerve (ION) adjacent to the maxillary bone infraorbital fissure at a site just under the lower eyelid. Naïve controls underwent anesthesia only. The chronic trigeminal inflammatory compression (TIC) nerve injury model induces measurable changes in evoked reflexive or higher order pain-like and anxiety-like behaviors but are not otherwise detectable.
The HDAC4/5 inhibitor LMK235 (s.c., 5 mg/kg)(N-[[6-(Hydroxyamino)-6-oxohexyl]oxy]-3,5-dimethyl-benzamide) (Cayman Chemical Co., Ann Arbor, MI) was used at previously published dilutions (Bennett G J, Xie Y K. Pain 1988 April; 33:87-107). […] All treatments with the HDACi (5 mg/kg) or vehicle were given daily for seven consecutive days in the neck scruff (s.c.) for comparisons to naïve control mice.
In the first post-treatment study, male C57B1/6 mice were subcutaneously (s.c.) injected daily for seven days beginning in week 3 following the trigeminal nerve insult induced surgically. Withdrawal thresholds were tested weekly with von Frey fiber stimulation on the snout. One TIC mouse behaving erratically on day 1-7 was eliminated from the study.
In the second post-treatment study, C57B1/6 mice were treated daily for 14 days in week 8 and week 9 after the nerve insult. Withdrawal thresholds were determined weekly with von Frey fiber stimulation on the snout until experiment end.
Testing was done by an observer blinded to study group. Von Frey assessment of snout withdrawal threshold was conducted prior to and at least once a week after nerve injury to confirm development of craniofacial neuropathic pain. […]
(§1) Mechanical and cold sensitivity was modified for face as previously described (Montera M A, Westlund K N, Bio-protocol2020 April 20; 10(8):e3591-e3591; Lyons et al., Neuroscience 2015 Jun. 4; 295:126-138; Ma et al., Mol Brain 2012 Dec. 28; 5:44; Montera et al., Channels (Austin). 2021 December; 15(1):31-37). Briefly, animals were gently restrained and the mechanical threshold for nocifensive head withdrawal was determined using calibrated von Frey filaments (0.008 g-6.0 g) using the Up-Down method (Chaplan et al., J Neurosci Methods 1994 July; 53(1):55-63; FIG. 2). Cold sensitivity was determined by applying a 10° C. cold coil to the ION's receptive field and measuring the time until an animal withdrew its head (Montera et al., Channels (Austin). 2021 December; 15(1):31-37).

[2] = test system: BALBc mice with FRICT-ION nerve injury; test: von Frey mechanical threshold, FRICT-ION trigeminal nerve injury model; assay type: in vivo, mouse; settings: male and female BALBc FRICT-ION mice, 5 mg/kg s.c. daily in week 3, vs vehicle
Excerpt: The FRICT-ION chronic neuropathic pain model combines the chemical irritation of chromic gut suture with some physical compression of the maxillary branch (V2) of the trigeminal nerve. FRICT-ION model was induced in 9-week-old mice anesthetized briefly with isoflurane (2-3%). Intraoral surgical incision was made with a small scalpel puncture at the buccal cheek crease. A piece of chromic gut suture (3 mm length, 4-0) was placed parallel to the infraorbital nerve (ION) and pushed into the tight space to follow the trigeminal nerve as it passes into the foramen rotundum of the skull. The model simulates blunt force traumatic injury to the nerve, residual wound debris, or other irritation. […]
[…] Withdrawal thresholds were determined weekly with von Frey fiber stimulation on the snout. […]
as §1, with “Cold sensitivity was determined by applying a 10° C. cold coil to the ION's receptive field and measuring the time until an animal withdrew its head (Montera et al., Channels (Austin). 2021 December; 15(1):31-37).” left out

[3] = test system: HDAC5 and pain related genes in TG; test: RT-PCR of TG gene expression; assay type: in vivo, mouse
Method: To confirm that the anti-allodynic mechanism provided by LMK235 was accompanied by changes in RNA of specific pain relate genes, TG expression of several genes was assessed in the TG of LMK235-treated and untreated FRICT-ION groups to naïve controls with RT-PCR (FIG. 12).
Primers were ordered from Bio-Rad Laboratories, Inc. (Hercules, CA). Samples were run by UNM Human Tissue Repository Core facility. 400 μg of total RNA was transcribed into cDNA using iScript cDNA synthesis kit (Catalog #1708890, BioRad Laboratories, Inc., Hercules, CA, USA). Relative analysis of HDAC5 by Sybr Green qRT-PCR was run in order to validate the results observed via RNAseq. All primers, housekeeping gene primers, and the amplicon context sequence were purchased pre-validated from Bio-Rad Laboratories, Inc. (PrimePCR SYBR Green Assay: HDAC5, Mouse, qMmuCID0021326; Bio-Rad Laboratories, Inc., Hercules, CA). All qRT-PCR amplification reactions were done in 20 μl volumes in triplicate using iTaq Universal SYBR Green Supermix (Catalog #1725122, Bio-Rad Laboratories, Inc., Hercules, CA) in 96-well plates and run on a LightCycler 96 qRT-PCR system (Roche, Germany). The Amplification program used for amplification was an initial activation step of 95° C. for two minutes followed by 40 cycles at 95° C. for five seconds and 60° C. for 30 seconds, and concluding with a melt curve of 65° C.-95° C. with five seconds/step. qRT-PCR was done on the HDAC5 gene target and two housekeeping genes within each of the treated and untreated controls and experimental conditions. qRT-PCR data were analyzed using the 2-ΔΔcT method (Livak K J, Schmittgen T D, Methods 2001 December;25(4):402-408). Briefly, the mean ΔcT of each differentially expressed gene target assayed for, in both the experimental conditions and the untreated controls was calculated by subtracting the mean cT from the mean cT of the housekeeping genes values for each sample type. ΔΔcT was then calculated by subtracting the experimental ΔcT group from the control Act group. Expression fold change was expressed as 2-ΔΔcT.

HDAC 5 = HDAC 5 (Homo sapiens, UniProt Q9UQL6); settings: cited from earlier work
[4] = LMK235-treated FRICT-ION mice, week 10

Sequence of HDAC 5 (Q9UQL6 whole entry, species assumed): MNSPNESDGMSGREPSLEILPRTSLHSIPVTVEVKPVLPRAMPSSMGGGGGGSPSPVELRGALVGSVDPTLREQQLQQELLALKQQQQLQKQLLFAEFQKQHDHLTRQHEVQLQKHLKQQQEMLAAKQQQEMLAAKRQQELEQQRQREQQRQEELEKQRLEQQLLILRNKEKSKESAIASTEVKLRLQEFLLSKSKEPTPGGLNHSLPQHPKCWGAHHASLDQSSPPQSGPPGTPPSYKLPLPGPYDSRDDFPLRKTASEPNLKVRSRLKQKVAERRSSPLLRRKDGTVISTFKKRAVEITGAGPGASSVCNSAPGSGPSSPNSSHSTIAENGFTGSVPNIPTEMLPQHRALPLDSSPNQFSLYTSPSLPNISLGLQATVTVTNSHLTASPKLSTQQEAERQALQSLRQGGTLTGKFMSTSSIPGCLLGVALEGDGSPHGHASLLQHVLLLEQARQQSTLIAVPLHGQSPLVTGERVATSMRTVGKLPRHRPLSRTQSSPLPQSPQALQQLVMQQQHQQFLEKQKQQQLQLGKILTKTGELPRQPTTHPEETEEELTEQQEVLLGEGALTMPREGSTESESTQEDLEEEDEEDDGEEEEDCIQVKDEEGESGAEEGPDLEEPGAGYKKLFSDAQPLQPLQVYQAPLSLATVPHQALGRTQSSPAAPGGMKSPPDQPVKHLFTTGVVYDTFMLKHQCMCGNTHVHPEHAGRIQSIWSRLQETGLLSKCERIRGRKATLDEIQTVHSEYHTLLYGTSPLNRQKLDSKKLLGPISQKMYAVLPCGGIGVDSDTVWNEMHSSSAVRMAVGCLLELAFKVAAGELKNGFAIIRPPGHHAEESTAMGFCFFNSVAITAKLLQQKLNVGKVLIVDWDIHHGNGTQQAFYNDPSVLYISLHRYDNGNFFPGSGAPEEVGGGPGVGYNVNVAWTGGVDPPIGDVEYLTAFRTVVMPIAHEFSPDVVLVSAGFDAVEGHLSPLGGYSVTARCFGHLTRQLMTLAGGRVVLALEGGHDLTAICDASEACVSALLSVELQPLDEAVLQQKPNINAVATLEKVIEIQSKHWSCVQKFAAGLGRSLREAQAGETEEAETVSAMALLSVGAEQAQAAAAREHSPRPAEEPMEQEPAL

## Cc1cc(C)cc(C(=O)NOCCCCCC(=O)NO)c1 [LMK235, N-[[6-(Hydroxyamino)-6-oxohexyl]oxy]-3,5-dimethyl-benzamide]
[1]; C57BL/6 TIC mice, 5 mg/kg s.c., post-treatment 8 weeks after nerve injury, vs vehicle, 5 mg/kg
  mechanical threshold (von Frey), ipsilateral: significantly reversed; also recorded: significantly increased the mechanical threshold
[1]; TIC mice treated in week 8
  mechanical threshold (von Frey), contralateral side: complete return to naïve baseline
[1]; male C57BL/6 TIC mice, 5 mg/kg s.c. daily for seven days in week 3, vs vehicle, 5 mg/kg
  whisker pad mechanical threshold (von Frey): reversed to naïve baseline; also recorded: returned whisker pad mechanical threshold to naïve baseline
[1]; male C57BL/6 TIC mice, 5 mg/kg s.c. daily in week 3
  time mechanical threshold remained at naïve baseline: 4-6 weeks
[2]
  mechanical threshold / von Frey hypersensitivity: reverses von Frey hypersensitivity; also recorded: restored mechanical threshold to baseline
[3]; LMK235-treated FRICT-ION mice
  HDAC5 expression: reduced
  Hist1h2bc change: 1.4 fold
  Hist2h2aa1 change: 1.6 fold
[3]; [4]
  CCKBR RNA: normalized
  GNAI2 RNA: partially restored
  IFIT1 RNA: partially restored
  NTS RNA: normalized
  SCFN9 RNA: normalized
[3]; LMK235-treated naïve controls
  HDAC5 expression: reduced
[3]; LMK235-treated naïve mice
  changes in HDAC10 gene: not observed
  changes in HDAC11 gene: not observed
HDAC 5
  IC50: 4 nM
